Source: patent US20050197364A1, “Amide compounds as ion channel ligands and uses thereof” (priority 2003, published 2005)

Columns and labels:
[1] = tested on: thermal hyperalgesia; test: Thermal hyperalgesia (carrageenan, latency of paw withdrawal); format: in vivo, rat; details: rats, 30 mg/kg, two hours after dosing, FIG. 6
Procedure: Sprague-Dawley male rats obtained from Charles River, San Diego, Calif. were purchased at 150-175 g, and held for at least one week before testing. Pain was induced by injecting 100 μl of 2% carrageenan in 0.9% saline sub-Q into the right ventral hindpaw while the animals were under isofluorane anesthesia. Animals were then dosed one hour after with different concentrations of Compound 18 (3, 10, and 30 mg/kg). Two hours later, after acclimatizing in testing chambers for 20-30 minutes, animals were tested on both hindpaws for latency of paw withdrawal using a thermal testing apparatus. 2-3 trials were conducted with 10 minutes between trials. […] The figure depicts the time in seconds until animals withdraw from thermal stimulation at baseline and two hours after administration of delivery vehicle, control compound, and three concentrations of Compound 18.

[2] = Partition coefficient Log(D), 1-octanol / pH 7.4 buffer; format: physicochemical; details: pH 7.4, 1-octanol/buffer
Procedure: The partition coefficient, Log(D), between water-saturated 1octanol and pH 7.4 buffer was determined for Compound 18. The pH 7.4 buffer was prepared by adjusting the pH of a 0.07 M solution of NaH2PO4 to pH 7.4 with 10 N NaOH. 15 μL of a 10 mM stock solution of test article were pipetted in duplicate, into test tubes containing 750 μL each of 1-octanol and pH 7.4 buffer. Then 3 μL of 50 mM testosterone was also added to each tube. Then the tubes were rotated for about one hour using a benchtop rotator. Following the rotation, the tubes sat on the bench top for about 1 hour to allow the layers to separate.
Thereafter, 400 μL of the octanol (top) layer was removed and placed into a test tube. Next 400 μL of the aqueous (bottom) layer was removed and placed into a test tube. […]
A standard curve of test article and testosterone was prepared using 50% methanol at the following concentrations: 2, 0.6, 0.2, 0.06, 0.02, 0.006, and 0.002 μM. The samples were analyzed by LC/MS monitoring both test article and testosterone. Log (D) was calculated for each duplicate sample by taking the calculated concentration of the least diluted sample for each phase that fell within the standard curve using the following equation: Log(D)=Log10(Calc. Conc. in Organic Phase/Calc. Conc. in Aqueous Phase).

[3] = Plasma protein binding by equilibrium dialysis, human plasma; format: in vitro ADME; details: human plasma in sodium citrate, pH 7.4, 37° C., read-out: human plasma protein binding (% Bound)
Procedure: Membranes from Harvard/Amika with a molecular weight cutoff of 5,000 were rinsed with dH2O then placed in pH 7.4 PBS supplied by Gibco. The membranes were allowed to soak for 1 hour. A stock of the test article was pooled with Warfarin, Atropine at 2 mM in DMSO. The test article was then dosed into human plasma in sodium citrate, Rat Plasma, and Mouse Plasma to a final 10 μM concentration (0.5% DMSO v/v). The pre-soaked membranes were then placed into dialysis chambers. 500 μL of PBS was added to one side of the chamber, and 500 μL of the Matrix containing the test article was added to the other side of the chamber.
The chambers were then placed into an enclosed, heated rocker, which was pre-warmed to 37° C. and allowed to reach equilibrium for at least 22 hours. After 22 hours both sides were sampled. 100 μL of the donor side was added to 500 μL of PBS. 100 μL of the PBS side was added to 20 μL of fresh matrix. Samples then were crashed with 1:1 Acetonitrile and centrifuged at 10,000 RPM for 10 minutes. […]
Standards were prepared in a 1:5 plasma:PBS mixture at 5, 1.5, 0.5, 0.15, 0.05, 0.015 and 0.005 μM concentrations. […] Protein binding values were calculated as follows: % Bound=[(Concentration in Donor−Concentration in Receiver)/(Concentration in Donor)]×100. % Recovery=[(Concentration in donor+Concentration in Receiver)]/(Concentration in Normal Initial)]×100

[4] = target: 2C9 (Homo sapiens, UniProt P11712); test: Cytochrome p450 inhibition assessment, 2C9; format: in vitro ADME; details: concentration range tested, upper 100 μM
2C9, sequence (P11712 whole entry): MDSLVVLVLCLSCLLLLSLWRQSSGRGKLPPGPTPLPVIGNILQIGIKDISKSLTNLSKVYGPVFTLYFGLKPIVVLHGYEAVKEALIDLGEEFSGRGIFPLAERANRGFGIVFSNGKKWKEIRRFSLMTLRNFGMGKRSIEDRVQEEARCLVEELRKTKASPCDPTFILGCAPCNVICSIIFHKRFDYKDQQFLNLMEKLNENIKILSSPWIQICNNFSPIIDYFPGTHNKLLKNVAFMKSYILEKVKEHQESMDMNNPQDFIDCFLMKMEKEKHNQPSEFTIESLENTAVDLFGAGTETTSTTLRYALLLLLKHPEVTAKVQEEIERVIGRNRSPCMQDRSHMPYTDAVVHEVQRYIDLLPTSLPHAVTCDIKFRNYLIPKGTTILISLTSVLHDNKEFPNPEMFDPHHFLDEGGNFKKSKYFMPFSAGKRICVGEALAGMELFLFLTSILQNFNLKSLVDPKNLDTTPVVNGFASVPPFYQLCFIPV
Procedure: (§1) The ability of test compounds to inhibit five major human cytochrome p450 isozymes was evaluated. Cytochrome p450 inhibition assays were performed on 96-well microtiter assay plates according to the protocols described in Gentest P450 inhibition instruction manuals. The assays were performed in duplicate at 8 concentrations with the upper concentration of 100 μM followed by a 1:3 serial dilution. Reactions were initiated by the addition of 100 μL of enzyme/substrate mix to 100 μL of cofactor/serial dilution mix, and terminated by addition of 75 μL of a 4:1 acentonitrile: 0.5 M Tris base solution or by 2N NaOH for CYP3A4/DBF. Fluorescence was measured using a fluorescence plate reader (FLUOstar model 403, BMG Lab Technologies, Durham, N.C.). For reactions with inhibition greater than 50%, IC50 values were determined by fitting the data to the Hill equation using software GraphPad Prism (Version 4.02, GraphPad Software, San Diego, Calif.).

[5] = target: CYP3A4 (Homo sapiens, UniProt P08684); test: Cytochrome p450 inhibition assessment, CYP3A4; format: in vitro ADME; details: concentration range tested, upper 100 μM
CYP3A4, sequence (P08684 whole entry): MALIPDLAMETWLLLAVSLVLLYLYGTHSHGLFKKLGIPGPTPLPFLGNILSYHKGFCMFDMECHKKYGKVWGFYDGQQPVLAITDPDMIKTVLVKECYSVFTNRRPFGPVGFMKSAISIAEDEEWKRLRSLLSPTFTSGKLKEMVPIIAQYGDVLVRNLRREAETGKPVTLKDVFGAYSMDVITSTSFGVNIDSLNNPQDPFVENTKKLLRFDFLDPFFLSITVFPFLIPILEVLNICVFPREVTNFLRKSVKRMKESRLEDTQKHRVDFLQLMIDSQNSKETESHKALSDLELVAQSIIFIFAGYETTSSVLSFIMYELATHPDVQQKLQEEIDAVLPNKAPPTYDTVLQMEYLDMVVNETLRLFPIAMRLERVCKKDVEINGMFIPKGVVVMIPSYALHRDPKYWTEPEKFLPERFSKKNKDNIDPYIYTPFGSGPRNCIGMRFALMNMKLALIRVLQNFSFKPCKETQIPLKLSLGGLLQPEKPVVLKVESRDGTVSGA
Procedure: as §1

[6] = target: T1, CYP1A2 (Homo sapiens, UniProt P05177); test: Cytochrome p450 inhibition assessment, CYP1A2; format: in vitro ADME; details: estimated
T1 sequence (P05177 1-516): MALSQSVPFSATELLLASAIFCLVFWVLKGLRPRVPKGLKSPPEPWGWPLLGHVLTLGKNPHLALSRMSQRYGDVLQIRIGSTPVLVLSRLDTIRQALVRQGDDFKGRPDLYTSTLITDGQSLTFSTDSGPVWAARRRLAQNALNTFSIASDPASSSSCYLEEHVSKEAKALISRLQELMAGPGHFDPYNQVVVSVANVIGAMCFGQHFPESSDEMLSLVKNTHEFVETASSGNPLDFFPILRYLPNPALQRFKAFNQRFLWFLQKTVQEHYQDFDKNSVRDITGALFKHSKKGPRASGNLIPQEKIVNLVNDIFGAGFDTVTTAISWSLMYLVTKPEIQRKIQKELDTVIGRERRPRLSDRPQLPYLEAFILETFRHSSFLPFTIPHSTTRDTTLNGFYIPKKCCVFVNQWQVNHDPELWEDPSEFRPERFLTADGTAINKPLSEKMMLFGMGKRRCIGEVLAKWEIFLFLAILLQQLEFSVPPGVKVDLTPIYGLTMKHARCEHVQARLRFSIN
Procedure: as §1

## O=C(Nc1ccc(C(F)(F)F)cc1)c1ccc(-c2ncccc2Cl)cc1 [Compound 18, 4-(3-Chloropyridin-2-yl)-N-(4-trifluoromethyl-phenyl)benzamide]
[1]
  latency of paw withdrawal (reversal of thermal hyperalgesia): significantly increased
[2]
  Log (D): less than 4.7
[3]
  fraction unbound at 22 h, 10 µM: < 0.002
[4]
  inhibition of 2C9 activity: did not significantly inhibit
[5]
  inhibition of CYP3A4 activity: did not significantly inhibit
[6]
  IC50: 97.5 µM
